Source: PMC8617031, “Development of a BCL-xL and BCL-2 dual degrader with improved anti-leukemic activity,” (Nature Communications, 2021)
Where “and” joins values, the source holds several entries; their conditions need not be identical. Equal entries are not always repeated.

Legend:
[1] = test system: BCL-xL/PROTAC/VCB ternary complex (HiBit-BCL-xL, HaloTag-VHL); assay: NanoBRET intracellular ternary complex formation in 293T cells, BCL-xL; type: cell-based, human; settings: for NanoBRET signal (610/450 ratio, background-subtracted), Ave, Bcl-xl / NanoBRET ratio (610/450 x1000, background-subtracted), Bcl-xl, Ave: Ave of Read1 and Read2; for NanoBRET signal (610/450 ratio, background-subtracted), Ave, Bcl-xl: per replicate well; for NanoBRET signal (610/450 ratio, background-subtracted), Read1, Bcl-xl / NanoBRET signal (610/450 ratio, background-subtracted), Read2, Bcl-xl: individual replicate wells; for NanoBRET ratio (610/450 x1000, background-subtracted), Bcl-xl, Ave / NanoBRET ratio (610/450 x1000, background-subtracted), Bcl-xl, Read1 / NanoBRET ratio (610/450 x1000, background-subtracted), Bcl-xl, Read2: 293T cells, triplicate wells
Text: (§1) Plasmids HaloTag-VHL (Cat. No. CS1679C155) and CMV HiBit (Cat. No. CS1956B03) were purchased from Promega. HiBit-BCL-xL and HiBit-BCL-2 were constructed previously. The two mutants (HiBit-BCL-xL-K157-only and HiBit-BCL-xL-K-ko) were constructed through Gibson assembly method. The primer pair (5′-[…]-3′ and 5′-[…]c[…]-3′) and the template Flag-BCL-xL-K157-only or Flag-BCL-xL-K-ko (pDL2129)[2] were used to clone the BCL-xL-K157-only-containing and BCL-xL-K-ko-containing fragments, respectively. The primer pair (5′-[…]g[…]-3′ and 5′-[…]-3′) and pBit3.1-N (Cat. No. N2361, Promega) were used to clone the vector-containing fragment. The PCR fragments were assembled using NEBuilder® HiFi DNA Assembly Master Mix (Cat. No. E2621, NEB, Ipswich, MA, USA). DNA sequences in all these plasmids were authenticated by automatic sequencing. […] After 24 h, 2 × 10^4 transfected cells were seeded into white 96-well tissue culture plates in Gibco™ Opti-MEM™ I Reduced Serum Medium, No Phenol Red (Cat. No. 11-058-021, Fisher) containing 4% FBS with or without HaloTag NanoBRET 618 Ligand (Cat. No. PRN1662, Promega) and incubated overnight at 37 °C, 5% CO2. The following day, serial diluted compounds were added into the medium and plates were incubated at 37 °C, 5% CO2, for 6 h. After treatment, NanoBRET Nano-Glo Substrate (cat. no. N1662, Promega) was added into the medium, and the contents were mixed by shaking the plate for 30 s before measuring donor and acceptor signals on Biotek plate reader. Dual-filtered luminescence was collected with a 450/50 nm bandpass filter (donor, NanoBiT-BCL-XL protein or NanoBiT-BCL-2 protein) and a 610-nm longpass filter (acceptor, HaloTag NanoBRET ligand) using an integration time of 0.5 s. mBRET ratios were calculated following the NanoBRET™ Nano-Glo® Detection System (Cat. No. N1662, Promega).

[2] = test system: BCL-2/PROTAC/VCB ternary complex (HiBit-BCL-2, HaloTag-VHL); assay: NanoBRET intracellular ternary complex formation in 293T cells, BCL-2; type: cell-based, human; settings: for NanoBRET signal (610/450 ratio, background-subtracted), Ave, Bcl-2 / NanoBRET ratio (610/450 x1000, background-subtracted), Bcl-2, Ave: Ave of Read1 and Read2; for NanoBRET signal (610/450 ratio, background-subtracted), Ave, Bcl-2: per replicate well; for NanoBRET signal (610/450 ratio, background-subtracted), Read1, Bcl-2 / NanoBRET signal (610/450 ratio, background-subtracted), Read2, Bcl-2: individual replicate wells; for NanoBRET ratio (610/450 x1000, background-subtracted), Bcl-2, Ave / NanoBRET ratio (610/450 x1000, background-subtracted), Bcl-2, Read1 / NanoBRET ratio (610/450 x1000, background-subtracted), Bcl-2, Read2: 293T cells, triplicate wells
Text: as §1

Which “NanoBRET signal (610/450 ratio, background-subtracted), Ave, Bcl-xl” value ([1]; 0.333 uM) does the source give for `Cc1ncsc1-c1ccc(C(C)NC(=O)C2CC(O)CN2C(=O)C(NC(=O)CCCCCCCC(=O)N2CCN(CC3(C)CCC(c4ccc(Cl)cc4)=C(CN4CCN(c5ccc(C(=O)NS(=O)(=O)c6ccc(NC(CCN7CCOCC7)CSc7ccccc7)c(S(=O)(=O)C(F)(F)F)c6)cc5)CC4)C3)CC2)C(C)(C)C)cc1` (mixture of isomers) [319-C9] here?
Its value is 7.303 and 5.548 and 6.719.

What about the “NanoBRET signal (610/450 ratio, background-subtracted), Read1, Bcl-xl” value ([1]; 0.333 uM) of the same molecule?
Its value is 7.675 and 6.0029 and 7.554.

And the “NanoBRET signal (610/450 ratio, background-subtracted), Read2, Bcl-xl” value ([1]; 0.333 uM)?
Its value is 6.932 and 5.093 and 5.885.

What about the “NanoBRET signal (610/450 ratio, background-subtracted), Ave, Bcl-xl” value ([1]; 1 uM) of the same molecule?
Its value is 6.725 and 7.112.

What about the “NanoBRET signal (610/450 ratio, background-subtracted), Read1, Bcl-xl” value ([1]; 1 uM) of the same molecule?
Its value is 7.559 and 11.4906 and 7.902.

And the “NanoBRET signal (610/450 ratio, background-subtracted), Read2, Bcl-xl” value ([1]; 1 uM)?
Its value is 5.8908 and 9.929 and 6.321.

What about the “NanoBRET signal (610/450 ratio, background-subtracted), Ave, Bcl-xl” value ([1]; 3 uM) of the same molecule?
The value was 8.449 and 8.436 and 7.804.

And the “NanoBRET signal (610/450 ratio, background-subtracted), Read1, Bcl-xl” value ([1]; 3 uM)?
The value was 8.506 and 8.886 and 8.744.

And the “NanoBRET signal (610/450 ratio, background-subtracted), Read2, Bcl-xl” value ([1]; 3 uM)?
Its value is 8.392 and 7.986 and 6.863.

And the “NanoBRET signal (610/450 ratio, background-subtracted), Ave, Bcl-2” value ([2]; 0.333 uM)?
Its value is 5.707 and 5.966 and 5.739.

And the “NanoBRET signal (610/450 ratio, background-subtracted), Read1, Bcl-2” value ([2]; 0.333 uM)?
The value was 6.091 and 5.602 and 5.911.

And the “NanoBRET signal (610/450 ratio, background-subtracted), Read2, Bcl-2” value ([2]; 0.333 uM)?
Its value is 5.322 and 6.329 and 5.568.

And the “NanoBRET signal (610/450 ratio, background-subtracted), Ave, Bcl-2” value ([2]; 1 uM)?
The value was 8.164 and 7.003 and 7.361.

And the “NanoBRET signal (610/450 ratio, background-subtracted), Read1, Bcl-2” value ([2]; 1 uM)?
Its value is 7.94 and 7.065 and 7.5271.

And the “NanoBRET signal (610/450 ratio, background-subtracted), Read2, Bcl-2” value ([2]; 1 uM)?
The value was 8.387 and 6.941 and 7.196.

And the “NanoBRET signal (610/450 ratio, background-subtracted), Ave, Bcl-2” value ([2]; 3 uM)?
Its value is 7.788 and 8.559 and 8.325.

And the “NanoBRET signal (610/450 ratio, background-subtracted), Read1, Bcl-2” value ([2]; 3 uM)?
Its value is 7.715 and 8.321 and 8.876.

What about the “NanoBRET signal (610/450 ratio, background-subtracted), Read2, Bcl-2” value ([2]; 3 uM) of the same molecule?
The value was 7.862 and 8.797 and 7.774.

`Cc1ncsc1-c1ccc(C(C)NC(=O)C2CC(O)CN2C(=O)C(NC(=O)CCCCC(=O)N2CCN(CC3(C)CCC(c4ccc(Cl)cc4)=C(CN4CCN(c5ccc(C(=O)NS(=O)(=O)c6ccc(NC(CCN7CCOCC7)CSc7ccccc7)c(S(=O)(=O)C(F)(F)F)c6)cc5)CC4)C3)CC2)C(C)(C)C)cc1` (mixture of isomers) [319-C6] was tested. Which “NanoBRET ratio (610/450 x1000, background-subtracted), Bcl-xl, Ave” value (from here on “NanoBRET ratio … Bcl-xl, Ave”) ([1]; 0.333 uM) did it give?
Its value is 6.174 and 6.1699 and 6.65.

And the “NanoBRET ratio (610/450 x1000, background-subtracted), Bcl-xl, Read1” value (“NanoBRET ratio … Bcl-xl, Read1” for short) ([1]; 0.333 uM)?
Its value is 6.062 and 6.008 and 6.406.

And the “NanoBRET ratio (610/450 x1000, background-subtracted), Bcl-xl, Read2” value (shortened to “NanoBRET ratio … Bcl-xl, Read2”) ([1]; 0.333 uM)?
The value was 6.287 and 6.332 and 6.893.

What about the “NanoBRET ratio … Bcl-xl, Ave” value ([1]; 1 uM) of the same molecule?
Its value is 8.477 and 7.0143 and 7.515.

And the “NanoBRET ratio … Bcl-xl, Read1” value ([1]; 1 uM)?
Its value is 8.852 and 7.285 and 8.097.

And the “NanoBRET ratio … Bcl-xl, Read2” value ([1]; 1 uM)?
The value was 8.103 and 6.744 and 6.934.

And the “NanoBRET ratio … Bcl-xl, Ave” value ([1]; 3 uM)?
Its value is 8.009 and 9.063 and 8.852.

And the “NanoBRET ratio … Bcl-xl, Read1” value ([1]; 3 uM)?
The value was 8.381 and 8.755 and 9.483.

And the “NanoBRET ratio … Bcl-xl, Read2” value ([1]; 3 uM)?
Its value is 7.637 and 9.371 and 8.221.

What about the “NanoBRET ratio (610/450 x1000, background-subtracted), Bcl-2, Ave” value (“NanoBRET ratio … Bcl-2, Ave” below) ([2]; 0.333 uM) of the same molecule?
Its value is 6.191 and 6.524 and 6.882.

What about the “NanoBRET ratio (610/450 x1000, background-subtracted), Bcl-2, Read1” value (shortened to “NanoBRET ratio … Bcl-2, Read1”) ([2]; 0.333 uM) of the same molecule?
The value was 6.596 and 6.719 and 7.227.

What about the “NanoBRET ratio (610/450 x1000, background-subtracted), Bcl-2, Read2” value (shortened to “NanoBRET ratio … Bcl-2, Read2”) ([2]; 0.333 uM) of the same molecule?
The value was 5.786 and 6.329 and 6.537.

And the “NanoBRET ratio … Bcl-2, Ave” value ([2]; 1 uM)?
Its value is 6.728 and 7.064 and 7.162.

What about the “NanoBRET ratio … Bcl-2, Read1” value ([2]; 1 uM) of the same molecule?
The value was 6.811 and 7.607 and 7.576.

What about the “NanoBRET ratio … Bcl-2, Read2” value ([2]; 1 uM) of the same molecule?
Its value is 6.646 and 6.52 and 6.748.

What about the “NanoBRET ratio … Bcl-2, Ave” value ([2]; 3 uM) of the same molecule?
The value was 8.027 and 7.6 and 7.992.

And the “NanoBRET ratio … Bcl-2, Read1” value ([2]; 3 uM)?
The value was 8.178 and 7.5868 and 7.751.

And the “NanoBRET ratio … Bcl-2, Read2” value ([2]; 3 uM)?
Its value is 7.877 and 7.613 and 8.232.
